US20230066946A1, “1,5-DIPHENYLPYRAZOLYL-3-OXYALKYL ACIDS AND 1-PHENYL-5-THIENYLPYRAZOLYL-3-OXYALKYL ACIDS AND THE USE THEREOF FOR CONTROL OF UNWANTED PLANT GROWTH” (Bayer Aktiengesellschaft, priority 2019, published 2023)

Experiments:
MATIN = experiment: Post-emergence herbicidal action against MATIN; type: in vivo, Matricaria inodora; settings: 1280 g/ha, visual rating about 3 weeks after treatment
Protocol: (§1) [table] Seeds of mono- and dicotyledonous weed plants are placed in plastic pots in sandy loam soil (twin sowing with one species each of mono- or dicotyledonous weed plants per pot), covered with soil and cultivated in a greenhouse under controlled growth conditions. 2 to 3 weeks after sowing, the test plants are treated at the one-leaf stage. The compounds of the invention, formulated in the form of wettable powders (WP) or as emulsion concentrates (EC), are applied to the green parts of the plants as aqueous suspension or emulsion with addition of 0.5% additive at a water application rate equivalent to 600 litres per hectare. After the test plants have been kept in the greenhouse under optimum growth conditions for about 3 weeks, the activity of the preparations is rated visually in comparison to untreated controls. For example, 100% activity=the plants have died, 0% activity=like control plants. Tables 5.1-5.16 below show the effects of selected compounds of the general formula (I) according to Tables 1 to 3 on various harmful plants at an application rate corresponding to 1280 or 320 g/ha, which have been obtained by the aforementioned experimental method.

STEME [1] = experiment: Pre-emergence herbicidal action against STEME; type: in vivo, Stellaria media; settings: 1280 g/ha, scored visually after about 3 weeks vs untreated controls
From the text: (§2) Seeds of mono- and dicotyledonous weed plants are placed in plastic pots in sandy loam soil (doubly sown with one species each of mono- or dicotyledonous weed plants per pot) and covered with soil. The compounds of the invention, formulated in the form of wettable powders (WP) or as emulsion concentrates (EC), are then applied onto the surface of the covering soil as aqueous suspension or emulsion with addition of 0.5% additive at a water application rate equivalent to 600 litres per hectare. After the treatment, the pots are placed in a greenhouse and kept under good growth conditions for the trial plants. After about 3 weeks, the effect of the preparations is scored visually in comparison with untreated controls as percentages. For example, 100% activity=the plants have died, 0% activity=like control plants. [table] Tables 4.1-4.15 below show the effects of selected compounds of the general formula (I) according to Tables 1 to 3 on various harmful plants at an application rate corresponding to 1280 or 320 g/ha, which have been obtained by the aforementioned experimental method.

AMARE [2] = experiment: Post-emergence herbicidal action against AMARE; type: in vivo, Amaranthus retroflexus; settings: 1280 g/ha, visual rating about 3 weeks after treatment
Protocol: as §1

SETVI [3] = experiment: Pre-emergence herbicidal action against SETVI; type: in vivo, Setaria viridis; settings: 1280 g/ha, scored visually after about 3 weeks vs untreated controls
From the text: as §2

AMARE [4] = experiment: Pre-emergence herbicidal action against AMARE; type: in vivo, Amaranthus retroflexus; settings: 1280 g/ha, scored visually after about 3 weeks vs untreated controls
From the text: as §2

STEME [5] = experiment: Post-emergence herbicidal action against STEME; type: in vivo, Stellaria media; settings: 1280 g/ha, visual rating about 3 weeks after treatment
Protocol: as §1

ECHCG = experiment: Pre-emergence herbicidal action against ECHCG; type: in vivo, Echinochloa crus-galli; settings: scored visually after about 3 weeks vs untreated controls, 100% = plants have died, 0% = like control plants
From the text: as §2

SETVI [6] = experiment: Post-emergence herbicidal action against SETVI; type: in vivo, Setaria viridis; settings: 1280 g/ha, post-emergence at one-leaf stage, rated visually after about 3 weeks vs untreated controls
Protocol: as §1

Row | Structure (SMILES) | Post-emergence action against MATIN in % (MATIN) | Pre-emergence action against STEME in % (STEME [1]) | Post-emergence action against AMARE in % (AMARE [2]) | Pre-emergence action against SETVI in % (SETVI [3]) | Pre-emergence action against AMARE in % (AMARE [4]) | Post-emergence action against STEME in % (STEME [5]) | Pre-emergence action at 1280 g/ha against ECHCG in % (ECHCG) | Post-emergence action against SETVI in % (SETVI [6])
1 | CCOC(=O)COc1nn(-c2ccc(F)cc2F)c(-c2ccc(F)cc2F)c1Br [I-088] | 90% | 100% | 100% | 90% | 90% | 100% | – | –
2 | CCOC(=O)COc1nn(-c2ccccc2F)c(-c2ccc(F)c(F)c2)c1Br [I-133] | 90% | 100% | 90% | 100% | 100% | 100% | 90% | –
3 | CCOC(=O)COc1nn(-c2ccccc2OC)c(-c2ccc(F)cc2)c1Br [I-089] | – | – | 100% | – | – | – | – | 100%
4 | C#CCNC(=O)COc1nn(-c2ccc(F)cc2)c(-c2cccc(F)c2)c1Br [III-016] | – | 100% | 90% | 100% | 100% | – | 100% | –
5 | CCOC(=O)COc1nn(-c2ccc(F)cc2)c(-c2ccc(F)cc2)c1Br [I-076] | 90% | 100% | 100% | 100% | 100% | – | 90% | –
6 | COC(=O)COc1nn(-c2cccc(F)c2)c(-c2ccccc2)c1[N+](=O)[O-] [I-122] | – | – | – | – | 100% | – | 100% | –
7 | COC(=O)COc1nn(-c2cccc(F)c2)c(-c2ccccc2)c1Br [I-114] | 90% | 100% | 100% | 100% | 100% | – | 90% | –
8 | CCOC(=O)COc1nn(-c2c(F)cccc2F)c(-c2ccc(F)c(F)c2)c1Br [I-134] | – | 100% | 90% | 100% | 100% | 100% | 100% | –
9 | C=CCNC(=O)COc1nn(-c2c(F)cccc2F)c(-c2ccc(F)c(F)c2)c1Cl [III-068] | 90% | 90% | – | 100% | 90% | – | 100% | 90%
10 | O=C(COc1nn(-c2ccccc2)c(-c2ccc(F)cc2)c1Br)NCC1CC1 [III-005] | – | 100% | – | 100% | 90% | – | 100% | –
11 | CC(C)(Oc1nn(-c2ccccc2)c(-c2ccc(F)cc2)c1Br)C(=O)O [I-140] | – | 100% | – | 100% | 90% | 100% | 90% | –
12 | C=C(C)CNC(=O)COc1nn(-c2ccccc2F)c(-c2ccccc2)c1Br [III-001] | – | 100% | 100% | 100% | – | – | 90% | 100%
13 | CCOC(=O)COc1nn(-c2ccccc2F)c(-c2ccc(F)c(F)c2)c1Cl [I-131] | 90% | – | – | 100% | 100% | 90% | 100% | –
14 | C=CCNC(=O)COc1nn(-c2ccccc2F)c(-c2ccc(F)c(F)c2)c1[N+](=O)[O-] [III-066] | – | 90% | – | 90% | 90% | – | – | 100%
15 | C=CCNC(=O)COc1nn(-c2ccccc2F)c(-c2ccc(F)c(F)c2)c1Cl [III-067] | 90% | 90% | – | 100% | 100% | 100% | 100% | 100%
16 | C=CCNC(=O)COc1nn(-c2c(F)cccc2F)c(-c2ccc(F)c(F)c2)c1Br [III-054] | – | – | – | 90% | 90% | – | – | 100%
17 | CCOC(=O)COc1nn(-c2c(F)cccc2F)c(-c2ccc(F)c(F)c2)c1Cl [I-142] | 90% | 100% | – | 100% | 100% | 100% | 100% | –
18 | O=C(O)COc1nn(-c2ccc(F)cc2)c(-c2cccc(F)c2)c1Br [I-119] | 90% | 100% | 100% | 100% | 100% | 90% | – | –
19 | CCOC(=O)COc1nn(-c2ccccc2)c(-c2ccc(F)cc2F)c1Br [I-085] | 90% | – | 100% | 100% | 100% | 100% | 100% | –
20 | O=C(COc1nn(-c2ccccc2)c(-c2ccc(F)cc2)c1Br)OCc1cccc(F)c1 [I-111] | 90% | 100% | 100% | 90% | – | 90% | 100% | –
21 | O=C(COc1nn(-c2ccc(F)cc2)c(-c2cccc(F)c2)c1Cl)NC1CC1 [III-024] | – | 100% | – | 100% | 100% | – | 90% | –
22 | COC(=O)CCNC(=O)COc1nn(-c2ccc(F)cc2)c(-c2cccc(F)c2)c1Cl [III-026] | 90% | – | 90% | 90% | 90% | – | – | 100%
23 | CC(Oc1nn(-c2ccccc2F)c(-c2ccc(F)c(F)c2)c1Br)C(=O)O (stereo not drawn) [I-168] | 90% | 100% | – | – | 100% | 100% | 90% | –
24 | COC(=O)C(C)Oc1nn(-c2ccccc2)c(-c2ccc(F)cc2)c1Cl (stereo not drawn) [I-145] | 90% | 100% | – | 100% | 90% | 100% | 100% | 90%
25 | C#CCNC(=O)COc1nn(-c2ccc(F)cc2)c(-c2cccc(F)c2)c1Cl [III-023] | – | 100% | – | 100% | 90% | – | 90% | 100%
26 | CCOC(=O)CCNC(=O)COc1nn(-c2cccc(F)c2)c(-c2ccccc2)c1Br [III-033] | – | 100% | 90% | 100% | 90% | – | 90% | 100%
